This note sets out measurements from ChEMBL document CHEMBL4177737, “Identification of bicyclic hexafluoroisopropyl alcohol sulfonamides as retinoic acid receptor-related orphan receptor gamma (RORγ/RORc) inverse agonists. Employing structure-based drug design to improve pregnane X receptor (PXR) selectivity” (Bioorg Med Chem Lett, 2018).

For data set [1], the target named is T1, Oxysterols receptor LXR-alpha (Homo sapiens, UniProt Q13133).
T1 sequence (Q13133 whole entry): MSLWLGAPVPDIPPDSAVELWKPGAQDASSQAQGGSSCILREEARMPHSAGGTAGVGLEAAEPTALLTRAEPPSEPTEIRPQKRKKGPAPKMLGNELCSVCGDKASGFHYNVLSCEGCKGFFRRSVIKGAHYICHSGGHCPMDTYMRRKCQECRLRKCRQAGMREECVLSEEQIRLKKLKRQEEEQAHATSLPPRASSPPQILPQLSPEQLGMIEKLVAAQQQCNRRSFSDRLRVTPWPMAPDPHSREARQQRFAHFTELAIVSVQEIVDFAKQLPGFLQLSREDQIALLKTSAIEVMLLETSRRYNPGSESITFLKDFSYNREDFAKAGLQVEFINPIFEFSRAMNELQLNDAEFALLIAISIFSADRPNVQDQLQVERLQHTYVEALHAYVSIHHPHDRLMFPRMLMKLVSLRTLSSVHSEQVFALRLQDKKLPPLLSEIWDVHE
The data set can be described thus: Agonist activity at GAL4-tagged human LXRalpha assessed as receptor activation expressed in African green monkey CV1 cells by luciferase reporter gene assay. Type of data set: cell-based.

Data set [2] is described as follows: Stability in mouse liver microsomes assessed as parent compound remaining incubated for 10 mins. It is filed as ADME, microsome. The note with it: liver microsomes, read-out: Stability. (In general: Microsomes from liver hold many membrane-bound enzymes, among them those of drug oxidation.)
For a further data set, the target named is T2, PXR (NR1I2) (Homo sapiens, UniProt O75469).
T2 sequence (O75469 whole entry): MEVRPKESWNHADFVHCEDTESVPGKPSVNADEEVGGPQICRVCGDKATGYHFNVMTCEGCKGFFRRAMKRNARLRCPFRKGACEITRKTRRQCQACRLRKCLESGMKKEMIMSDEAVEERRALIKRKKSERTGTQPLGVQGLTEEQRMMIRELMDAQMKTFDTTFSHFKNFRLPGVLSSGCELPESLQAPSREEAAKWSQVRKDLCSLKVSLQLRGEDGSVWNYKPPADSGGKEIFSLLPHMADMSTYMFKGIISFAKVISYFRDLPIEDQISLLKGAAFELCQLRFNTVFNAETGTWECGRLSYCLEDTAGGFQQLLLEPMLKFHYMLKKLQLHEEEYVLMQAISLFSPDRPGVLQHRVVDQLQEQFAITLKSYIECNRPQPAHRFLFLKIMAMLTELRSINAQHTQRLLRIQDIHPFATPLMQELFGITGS
The data set is described as follows: Transactivation of PXR in human HepG2 cells by receptor transactivation assay relative to untreated control. It is filed as ADME, cell-based. The note with it: HepG2 cells, read-out: %max.

Data set [3] is described as follows: Drug level in Balb/c mouse at 30 mg/kg, po BID measured at 1 hr on day 5. To be noted: in vivo, read-out: Drug uptake. It is filed as ADME, organism-based.
The nature of data set [4]: Drug level in Balb/c mouse at 100 mg/kg, po BID measured at 23.5 hrs on day 1. Type of data set: ADME, organism-based. To be noted: in vivo, read-out: Drug uptake.
A short description of data set [5]: Drug level in Balb/c mouse at 100 mg/kg, po BID measured at 1 hr on day 1. It is filed as ADME, organism-based. To be noted: in vivo, read-out: Drug uptake.
Data set [6] in a line: Drug level in Balb/c mouse at 100 mg/kg, po BID measured at 7.5 hrs on day 5. To be noted: in vivo, read-out: Drug uptake. It is filed as ADME, organism-based.
The nature of data set [7]: Drug level in Balb/c mouse at 30 mg/kg, po BID measured at 7.5 hrs on day 5. The note with it: in vivo, read-out: Drug uptake. Type of data set: ADME, organism-based.
Data set [8] is described as follows: Drug level in Balb/c mouse at 30 mg/kg, po BID measured at 23.5 hrs on day 1. Type of data set: ADME, organism-based. To be noted: in vivo, read-out: Drug uptake.
Data set [9] can be described thus: Drug level in Balb/c mouse at 30 mg/kg, po BID measured at 23.5 hrs on day 5. The note with it: in vivo, read-out: Drug uptake. It is filed as ADME, organism-based.
Data set [10] can be described thus: Stability in human liver microsomes assessed as parent compound remaining incubated for 10 mins. Type of data set: ADME, microsome. The note with it: liver microsomes, read-out: Stability.
The nature of data set [11]: Drug level in Balb/c mouse at 100 mg/kg, po BID measured at 7.5 hrs on day 1. It is filed as ADME, organism-based. To be noted: in vivo, read-out: Drug uptake.
The target in data set [12] is T3, Nuclear receptor subfamily 1 group I member 2 (Homo sapiens, UniProt O75469).
T3 sequence (O75469 whole entry): T2 sequence (O75469 whole entry)
The data set is described as follows: Transactivation of PXR in human HepG2 cells by receptor transactivation assay. Type of data set: ADME, cell-based.

Data set [13] is described as follows: Drug level in Balb/c mouse at 100 mg/kg, po BID measured at 1 hr on day 5. Type of data set: ADME, organism-based. The note with it: in vivo, read-out: Drug uptake.
The subject of data set [14] is Mus musculus. The data set is described as follows: Inhibition of IL-2/IL-23 induced IL-17 production in C57BL/6 mouse challenged 3 times with IL-2/IL-23 (at 0, 7 and 23 hrs) after IL-2 alone priming (-24 hrs) at 50 mg/kg, po dosed 30 mins prior to each IL-2/IL-23 co-administration and measured after 7 hrs post last IL-2/IL-23 challenge. Type of data set: functional. The note with it: C57BL/6, po.

The test system of data set [15] is Mus musculus. The data set is described as follows: Inhibition of IL-2/IL-23 induced IL-17 production in C57BL/6 mouse challenged 3 times with IL-2/IL-23 (at 0, 7 and 23 hrs) after IL-2 alone priming (-24 hrs) at 25 mg/kg, po dosed 30 mins prior to each IL-2/IL-23 co-administration and measured after 7 hrs post last IL-2/IL-23 challenge. It is filed as functional. The note with it: C57BL/6, po.

The nature of data set [16]: Drug level in Balb/c mouse at 30 mg/kg, po BID measured at 7.5 hrs on day 1. Type of data set: ADME, organism-based. The note with it: in vivo, read-out: Drug uptake.
Data set [17] can be described thus: Drug level in Balb/c mouse at 30 mg/kg, po BID measured at 1 hr on day 1. Type of data set: ADME, organism-based. The note with it: in vivo, read-out: Drug uptake.
Data set [18] deals with T4, Oxysterols receptor LXR-beta (Homo sapiens, UniProt P55055).
T4 sequence (P55055 whole entry): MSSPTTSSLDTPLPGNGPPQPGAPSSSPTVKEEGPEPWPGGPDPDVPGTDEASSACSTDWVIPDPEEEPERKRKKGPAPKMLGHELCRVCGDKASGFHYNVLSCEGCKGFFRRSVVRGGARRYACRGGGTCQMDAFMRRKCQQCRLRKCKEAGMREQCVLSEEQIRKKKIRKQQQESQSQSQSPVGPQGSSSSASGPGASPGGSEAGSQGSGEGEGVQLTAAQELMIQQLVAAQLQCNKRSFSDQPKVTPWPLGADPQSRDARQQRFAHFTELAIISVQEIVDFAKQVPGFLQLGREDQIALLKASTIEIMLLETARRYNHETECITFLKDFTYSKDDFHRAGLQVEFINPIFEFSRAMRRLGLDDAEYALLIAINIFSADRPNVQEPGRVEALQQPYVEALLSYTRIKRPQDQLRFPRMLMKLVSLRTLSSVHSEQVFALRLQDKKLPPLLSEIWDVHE
The data set is described as follows: Agonist activity at GAL4-tagged human LXRbeta assessed as receptor activation expressed in African green monkey CV1 cells by luciferase reporter gene assay. Type of data set: cell-based. A general note: Reporter assays use an easily measured gene product as a stand-in for the process of interest.

pEC50: −log10 of the molar value. A value given as a limit tells only on which side of the number the result lay.

Take `CC(C)(O)[C@H](F)CNC(=O)C[C@@H]1CCc2cc(C(O)(C(F)(F)F)C(F)(F)F)ccc2N1S(=O)(=O)c1ccc(F)cc1`: the pEC50 in data set [1] was less than 5.12; in data set [12], 5.70; in data set [18], less than 5.12. Moreover, the remaining at 10 min in data set [2] came out at 62%; in data set [10], 56%. In addition, the Emax at PXR (NR1I2) is 100%. The concentration at 1 h worked out at 555 nM in [3], 13900 nM in [5], 2830 nM in data set [13] and 3490 nM in data set [17]. Besides, the concentration at 23.5 h in data set [4] came to 19 nM; in [8], 5 nM; in data set [9], 5 nM. For the same compound, the concentration at 7.5 h in data set [6] stood at 61 nM; in data set [7], 21 nM; in data set [11] it was 2460 nM; in data set [16], 134 nM. For the same compound, in the data set with Mus musculus [14], the inhibition in vivo at 50 mg/kg was found to be 98%. The inhibition in vivo at 25 mg/kg in the data set on Mus musculus [15] came to 74%.

In general, pEC50 refers to the EC50 on a negative log10 scale, so that one unit is a factor of ten. Broadly, the inhibition in vivo is the relative decrease from the control value, in per cent.
